Reference: ChEMBL document CHEMBL3588760, “Inhibitors of melanogenesis in B16 melanoma 4A5 cells from flower buds of Lawsonia inermis (Henna)” (Bioorg Med Chem Lett, 2015)

Legend:
[1] = target: Plasminogen (Homo sapiens) (UniProt P00747); assay: Inhibition of plasmin (unknown origin) at 100 uM after 18 hrs by arianor mahogany dye-based fibrin plate assay relative to control
[2] = Inhibition of melanogenesis in theophylline-stimulated mouse B16-4A5 cells at 1 uM after 72 hrs by microplate reader analysis relative to control; format: functional; settings: B16-4A5, 72 h
[3] = Inhibition of melanogenesis in theophylline-stimulated mouse B16-4A5 cells at 3 uM after 72 hrs by microplate reader analysis relative to control; format: functional; settings: B16-4A5, 72 h
[4] = Inhibition of melanogenesis in theophylline-stimulated mouse B16-4A5 cells at 10 uM after 72 hrs by microplate reader analysis relative to control; format: functional; settings: B16-4A5, 72 h
[5] = Cytotoxicity against mouse B16-4A5 cells assessed as cell viability at 1 uM after 70 hrs by WST-8 assay relative to control; format: cell-based; settings: read-out: Activity
[6] = Cytotoxicity against mouse B16-4A5 cells assessed as cell viability at 3 uM after 70 hrs by WST-8 assay relative to control; format: cell-based; settings: read-out: Activity
[7] = Cytotoxicity against mouse B16-4A5 cells assessed as cell viability at 10 uM after 70 hrs by WST-8 assay relative to control; format: cell-based; settings: read-out: Activity
[8] = Cytotoxicity against mouse B16-4A5 cells assessed as cell viability at 100 uM after 70 hrs by WST-8 assay relative to control; format: cell-based; settings: read-out: Activity
[9] = Downregulation of tyrosinase mRNA expression in theophylline-stimulated mouse B16-4A5 cells assessed as ratio of tyrosinase mRNA to beta-actin mRNA level at 3 uM after 72 hrs by qPCR analysis; format: functional, cell-based
[10] = Downregulation of tyrosinase mRNA expression in theophylline-stimulated mouse B16-4A5 cells assessed as ratio of tyrosinase mRNA to beta-actin mRNA level at 10 uM after 72 hrs by qPCR analysis; format: functional, cell-based
[11] = Downregulation of tyrosinase mRNA expression in theophylline-stimulated mouse B16-4A5 cells assessed as ratio of tyrosinase mRNA to beta-actin mRNA level at 30 uM after 72 hrs by qPCR analysis; format: functional, cell-based
[12] = Downregulation of TRP-1 mRNA expression in theophylline-stimulated mouse B16-4A5 cells assessed as ratio of TRP-1 mRNA to beta-actin mRNA level at 3 uM after 72 hrs by qPCR analysis; format: functional, cell-based
[13] = Downregulation of TRP-1 mRNA expression in theophylline-stimulated mouse B16-4A5 cells assessed as ratio of TRP-1 mRNA to beta-actin mRNA level at 10 uM after 72 hrs by qPCR analysis; format: functional, cell-based
[14] = Downregulation of TRP-1 mRNA expression in theophylline-stimulated mouse B16-4A5 cells assessed as ratio of TRP-1 mRNA to beta-actin mRNA level at 30 uM after 72 hrs by qPCR analysis; format: functional, cell-based
[15] = Downregulation of TRP-2 mRNA expression in theophylline-stimulated mouse B16-4A5 cells assessed as ratio of TRP-2 mRNA to beta-actin mRNA level at 3 uM after 72 hrs by qPCR analysis; format: functional, cell-based
[16] = Downregulation of TRP-2 mRNA expression in theophylline-stimulated mouse B16-4A5 cells assessed as ratio of TRP-2 mRNA to beta-actin mRNA level at 10 uM after 72 hrs by qPCR analysis; format: functional, cell-based
[17] = Downregulation of TRP-2 mRNA expression in theophylline-stimulated mouse B16-4A5 cells assessed as ratio of TRP-2 mRNA to beta-actin mRNA level at 30 uM after 72 hrs by qPCR analysis; format: functional, cell-based
[18] = Inhibition of melanogenesis in theophylline-stimulated mouse B16-4A5 cells at 30 uM after 72 hrs by microplate reader analysis relative to control; format: functional; settings: B16-4A5, 72 h
[19] = Inhibition of melanogenesis in theophylline-stimulated mouse B16-4A5 cells at 100 uM after 72 hrs by microplate reader analysis relative to control; format: functional; settings: B16-4A5, 72 h
[20] = Cytotoxicity against mouse B16-4A5 cells assessed as cell viability at 30 uM after 70 hrs by WST-8 assay relative to control; format: cell-based; settings: read-out: Activity
[21] = target: T1, Tyrosinase (Agaricus bisporus) (UniProt O42713); assay: Inhibition of mushroom tyrosinase using L-DOPA as substrate assessed as dopaquinone production at 100 uM after 5 mins by microplate reader analysis relative to control
T1 sequence (whole entry): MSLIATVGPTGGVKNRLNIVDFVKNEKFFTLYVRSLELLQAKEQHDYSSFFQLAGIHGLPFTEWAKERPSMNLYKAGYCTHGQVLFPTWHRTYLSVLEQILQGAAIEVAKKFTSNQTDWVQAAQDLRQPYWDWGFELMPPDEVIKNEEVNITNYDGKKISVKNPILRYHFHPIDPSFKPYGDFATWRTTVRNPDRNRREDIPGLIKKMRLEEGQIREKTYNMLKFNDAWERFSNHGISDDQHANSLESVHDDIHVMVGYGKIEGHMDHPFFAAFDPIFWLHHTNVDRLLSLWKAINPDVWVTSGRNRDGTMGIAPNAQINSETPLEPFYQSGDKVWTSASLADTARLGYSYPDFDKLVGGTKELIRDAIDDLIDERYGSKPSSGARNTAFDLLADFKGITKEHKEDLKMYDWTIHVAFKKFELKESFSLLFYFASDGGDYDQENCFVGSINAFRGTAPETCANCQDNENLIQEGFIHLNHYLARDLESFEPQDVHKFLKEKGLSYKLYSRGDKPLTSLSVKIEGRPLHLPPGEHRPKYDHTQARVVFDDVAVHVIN

Chain of Plasminogen (Homo sapiens) (P00747 97-580 limits assumed): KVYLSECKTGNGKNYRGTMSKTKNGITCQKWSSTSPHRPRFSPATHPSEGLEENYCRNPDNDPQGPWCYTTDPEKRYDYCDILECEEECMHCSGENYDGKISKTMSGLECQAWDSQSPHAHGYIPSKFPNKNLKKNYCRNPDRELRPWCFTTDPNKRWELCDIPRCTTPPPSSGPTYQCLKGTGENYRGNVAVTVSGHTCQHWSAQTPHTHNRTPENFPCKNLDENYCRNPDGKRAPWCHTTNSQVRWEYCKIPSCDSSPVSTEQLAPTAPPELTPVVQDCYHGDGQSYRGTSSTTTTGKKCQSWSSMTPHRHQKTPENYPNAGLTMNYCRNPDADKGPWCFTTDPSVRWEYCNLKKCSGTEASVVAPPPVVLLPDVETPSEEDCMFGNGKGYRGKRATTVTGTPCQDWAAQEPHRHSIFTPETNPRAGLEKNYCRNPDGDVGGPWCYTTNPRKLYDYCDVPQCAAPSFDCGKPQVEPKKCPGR
Chain of Plasminogen (Homo sapiens) (P00747 581-810 limits assumed): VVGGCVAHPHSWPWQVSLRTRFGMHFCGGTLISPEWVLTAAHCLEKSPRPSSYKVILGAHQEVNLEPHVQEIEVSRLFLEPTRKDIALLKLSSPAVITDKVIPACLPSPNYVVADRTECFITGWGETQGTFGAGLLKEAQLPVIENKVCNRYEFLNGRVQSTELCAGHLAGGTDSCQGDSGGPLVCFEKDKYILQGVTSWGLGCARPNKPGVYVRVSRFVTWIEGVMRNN

Row | inhibition [1] [%] | SMILES | inhibition at 1 µM [2] [%] | inhibition at 3 µM [3] [%] | inhibition at 10 µM [4] [%] | viability at 70 h, 1 µM [5] [%] | viability at 70 h, 3 µM [6] [%] | viability at 70 h, 10 µM [7] [%] | viability at 70 h, 100 µM [8] [%] | Ratio [9] | Ratio [10] | Ratio [11] | Ratio [12] | Ratio [13] | Ratio [14] | Ratio [15] | Ratio [16] | Ratio [17] | inhibition at 30 µM [18] [%] | inhibition at 100 µM [19] [%] | viability at 70 h, 30 µM [20] [%] | other results
1 | 33.1 | COc1ccc(-c2oc3cc(O)cc(O)c3c(=O)c2O[C@@H]2O[C@H](CO)[C@@H](O)[C@H](O)[C@H]2O)cc1O | 7.7 | 3.3 | -10.7 | 93.4 | 91.3 | 86.2 |  |  |  |  |  |  |  |  |  |  |  |  |  | 
2 | 28.5 | COc1ccc(-c2cc(=O)c3c(O)cc(O)cc3o2)cc1O[C@@H]1O[C@H](CO)[C@@H](O)[C@H](O)[C@H]1O | 6.3 | 18 | 40.6 | 92.8 | 91.4 | 94.5 | 66.2 | 1.22 | 0.99 | 1.09 | 0.85 | 1.08 | 0.77 | 1.08 | 0.92 | 0.93 | 44.1 | 61.5 | 79.4 | 
3 | 41.7 | O=c1cc(-c2ccc(O[C@@H]3O[C@H](CO)[C@@H](O)[C@H](O)[C@H]3O)c(O)c2)oc2cc(O)cc(O)c12 | 27.7 | 31 | 38.6 | 99.6 | 105 | 114 |  |  |  |  |  |  |  |  |  |  |  |  |  | inhibition [21]: 4.4%
4 | 9.5 | NC[C@H]1CC[C@H](C(=O)O)CC1 |  |  |  |  |  |  |  |  |  |  |  |  |  |  |  |  |  |  |  | 
5 | 20.7 | O=C1CC(c2ccc(O)c(O)c2)Oc2cc(O)cc(O)c21 (racemic) | 5.8 | 10.3 | 37.2 | 108 | 101 | 88.2 | 55.9 | 0.97 | 0.66 | 0.38 | 0.94 | 0.36 | 0.29 | 0.67 | 0.55 | 0.43 | 42.5 | 61.1 | 72.6 | inhibition [21]: 3.1%
